Test results: PMC5635026, “Homo-PROTACs: bivalent small-molecule dimerizers of the VHL E3 ubiquitin ligase to induce self-degradation” (Nature Communications, 2017)

What was measured:
Hdy-HIF-1α = assay: Immunoblot of HIF-1α / hydroxylated HIF-1α levels in HeLa cells; type: cell-based, Human; conditions: HeLa; for stabilization of Hdy-HIF-1α: 100 µM; for protein levels of hydroxylated HIF-1α (Hdy-HIF-1α): 1 µM, 10 h
Procedure: (§1) Cell culture. Human cell lines HeLa, U2OS and HEK 293, purchased from ATCC, were propagated in DMEM supplemented with 10% fetal bovine serum (FBS), L- glutamine, 100 μg ml^−1 of penicillin/streptomycin at 37 °C and 5% CO2. Cells were maintained for no more than 30 passages. All cell lines were routinely tested for mycoplasma contamination using MycoAlert kit from Lonza. For compound treatment experiments, cells were transferred in six-well plates with either 3 × 10^5 or 5 × 10^5 cells per well in 2 ml of media. At 80% confluence, cells were treated with compounds at the desired concentration, reaching final DMSO concentration of 0.1% v/v. Cells were incubated at 37 °C and 5% CO2 for the desired time before harvesting.
(§2) Immunoblotting. Cells were lysed in lysis buffer (20 mM Tris pH 8, 150 mM NaCl, 1% Triton × 100) and a protease inhibitor cocktail (Roche) per 10 ml buffer. For protein extracts, the dishes were placed on ice. The media was aspirated and the tissue layer washed twice with ice-cold phosphate buffer saline (PBS). Lysis buffer (120 μl) was added and the cells detached from the surface with a cell scraper. After removal of the insoluble fraction by centrifugation, the protein concentration of the supernatant was determined by Pierce™ Coomassie (Bradford) Protein Assay Kit. Protein extracts were fractionated by SDS-PAGE on 4–12% Tris-Acetate NuPage® Novex® (Life Technologies) polyacrylamide gels and transferred to a nitrocellulose membrane using wet transfer. The membrane was then blocked with 5 % w/v Bovine serum albumin (BSA) in Tris-buffered saline (TBS) with 0.1% w/v Tween-20. For detecting proteins the following primary antibodies in the given concentrations were used: anti-β-Actin (Cell Signaling Technology, 4970S, 13E5) 1:2000, anti-VHL (Cell Signaling Technology, #68547) 1:1000, anti-Hif-1α (BD Biosciences, 610959, clone 54) 1:1,000, anti-hydroxy-HIF-1α (Hyp564) (Cell Signaling Techonology; #3434) 1:1,000, anti-PHD2 (Bethyl Laboratories; A300-322A) 1:1,000, anti-PHD3 (Bethyl Laboratories; A300-327A) 1:1000, anti-CRBN (Proteintech; 11435-1-AP) 1:1,000. Following incubation with a horseradish peroxidase-conjugated secondary antibody (Cell Signaling Technology), the signal was developed using enhanced chemiluminescence (ECL) Western Blotting Detection Kit (Amersham) on Amersham Hyperfilm ECL film (Amersham). Band quantification was performed using ImageJ software and reported as relative amount as ratio of the each protein band relative to the lane’s loading control. The values obtained were then normalized to 0.1% DMSO vehicle control. See Supplementary Fig. 12 for full-scanned images of western-blots shown in the main text figures.

[1] = test system: Leucine-rich repeat-containing protein 42 (LRRC42); assay: TMT MS proteomics in HeLa cells, LRRC42 abundance; type: cell-based, Homo sapiens; conditions: 1 µM, 10 h, two replicates
Procedure: MS proteomics. Sample preparation. HeLa cells were seeded at 5 × 10^6 on a 10 cm plate 16 h before treatment. […] Cells were incubated at 37 °C and 5% CO2 for 10 h before harvesting. Cells were placed on ice and medium was removed and cells were washed twice with cold PBS. Cells were lysed in 0.5 ml of 100 mM Tris pH 8.0, 4% (w/v) SDS supplemented with protease inhibitor cocktail (Roche). The lysate was pulse sonicated briefly and then centrifuged at 17,000 × g for 15 min at 4 °C. The supernatant fraction of cell extract was snap-frozen in liquid nitrogen and stored in −80 °C freezer. Further sample processing, digestion, desalting, labeling and fractionation were performed as previously described.
nLC-MS/MS analysis. The TMT 10plex fractions were first analyzed as previously described. Briefly, the TMT 10plex fractions were analyzed sequentially on a Q Exactive HF Hybrid Quadrupole-Orbitrap Mass Spectrometer (Thermo Scientific) coupled to an UltiMate 3000 RSLCnano UHPLC system (Thermo Scientific) and EasySpray column (75 μm × 50 cm, PepMap RSLC C18 column, 2 μm, 100 Å, Thermo Scientific). The MS2 isolation window was set to 0.4 Da and the resolution set at 120,000. MS2 resolution was set at 60,000. The AGC targets for MS1 and MS2 were set at 3e^6 ions and 1e5 ions, respectively. The normalized collision energy was set at 32%. […] After the first analysis, the TMT labeled fractions were re-analyzed on the Q-Exactive HF using the same instrument settings and a target list generated from a theoretical trypsin digest of VHL. […] After the second analysis, two fractions were further analyzed using a targeted SIM/ddMS2 method on the Q-Exactive HF. […]
Peptide and protein identification. All the raw MS data files from the three analyses were merged and searched against the Uniprot-sprot-Trembl-Human-Canonical database by Maxquant software 1.5.3.30 for protein identification and TMT reporter ion quantitation. […] Quantified proteins were filtered if the absolute fold-change difference between the two DMSO replicates was ≥ 1.5.

pVHL30 [2] = molecular target: T1, pVHL30 (Homo sapiens, UniProt P40337); assay: Immunoblot of pVHL30 protein level in U2OS cells (time course); type: cell-based; parameters: endogenous in cells; conditions: for cellular efficacy at longer time points: after 36 h; for time of treatment to complete degradation of pVHL30: time course
T1 sequence (P40337 whole entry): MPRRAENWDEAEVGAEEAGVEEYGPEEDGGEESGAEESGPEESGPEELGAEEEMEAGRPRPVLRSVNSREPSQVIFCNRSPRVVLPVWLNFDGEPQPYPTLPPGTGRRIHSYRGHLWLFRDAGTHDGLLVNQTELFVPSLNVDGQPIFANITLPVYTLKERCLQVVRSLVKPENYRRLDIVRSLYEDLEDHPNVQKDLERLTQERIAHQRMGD
Procedure: as §1, §2

pVHL30 [3] = molecular target: T1, pVHL30; assay: Immunoblot of pVHL30 protein level in HeLa cells after compound treatment; type: cell-based; parameters: endogenous in cells; host or cells: HeLa; conditions: for remaining activity at 1 µM / depletion of target protein (pVHL30 / VHL): 10 h; for remaining activity at 1 µM: DMSO = 100, Fig. 4a, read-out: pVHL30 band quantification normalized to 0.1% DMSO
Procedure: as §1, §2

Structure (SMILES): Cc1ncsc1-c1ccc(CNC(=O)[C@@H]2C[C@@H](O)CN2C(=O)[C@@H](NC(=O)COCCOCCOCCOCC(=O)N[C@H](C(=O)N2C[C@H](O)C[C@H]2C(=O)NCc2ccc(-c3scnc3C)cc2)C(C)(C)C)C(C)(C)C)cc1 [CM09, N ^1 ,N ^14-bis((S)-1-((2S,4R)-4-hydroxy-2-((4-(4-methylthiazol-5-yl)benzyl)carbamoyl)pyrrolidin-1-yl)-3,3-dimethyl-1-oxobutan-2-yl)-3,6,9,12-tetraoxatetradecanediamide]
- stabilization of Hdy-HIF-1α (Hdy-HIF-1α): comparable with the effect obtained with VH032 alone
- average normalized ratio to DMSO, LRRC42 [1]: 2.15
- cellular efficacy at longer time points (pVHL30 [2]): lost its cellular efficacy
- time of treatment to complete degradation of pVHL30 (pVHL30 [2]): 2 h
- remaining activity at 1 µM (pVHL30 [3]; 1 µM): 19%
- degradation of pVHL in time course (pVHL30 [3]; 1 µM, even in the longer time points): Incomplete degradation

Structure (SMILES): Cc1ncsc1-c1ccc(CNC(=O)[C@@H]2C[C@@H](O)CN2C(=O)[C@@H](NC(=O)COCCOCCOCCOCCOCC(=O)N[C@H](C(=O)N2C[C@H](O)C[C@H]2C(=O)NCc2ccc(-c3scnc3C)cc2)C(C)(C)C)C(C)(C)C)cc1 [CM10, N ^1 ,N ^17-bis((S)-1-((2S,4R)-4-hydroxy-2-((4-(4-methylthiazol-5-yl)benzyl)carbamoyl)pyrrolidin-1-yl)-3,3-dimethyl-1-oxobutan-2-yl)-3,6,9,12,15-pentaoxaheptadecanediamide]
- protein levels of hydroxylated HIF-1α (Hdy-HIF-1α) (Hdy-HIF-1α): detectable albeit low increase
- stabilization of Hdy-HIF-1α (Hdy-HIF-1α): comparable with the effect obtained with VH032 alone
- average normalized ratio to DMSO, LRRC42 [1]: 0.64
- cellular efficacy at longer time points (pVHL30 [2]): retained their efficacy
- time of treatment to complete degradation of pVHL30 (pVHL30 [2]): 2 h
- depletion of target protein (pVHL30 / VHL) (pVHL30 [3]; 1 µM): total knockdown
- remaining activity at 1 µM (pVHL30 [3]; 1 µM): 3%

Structure (SMILES): Cc1ncsc1-c1ccc(CNC(=O)[C@@H]2C[C@@H](O)CN2C(=O)[C@@H](NC(=O)COCCOCCOCCOCCOCCOCC(=O)N[C@H](C(=O)N2C[C@H](O)C[C@H]2C(=O)NCc2ccc(-c3scnc3C)cc2)C(C)(C)C)C(C)(C)C)cc1 [CM11, N ^1 ,N ^20-bis((S)-1-((2S,4R)-4-hydroxy-2-((4-(4-methylthiazol-5-yl)benzyl)carbamoyl)pyrrolidin-1-yl)-3,3-dimethyl-1-oxobutan-2-yl)-3,6,9,12,15,18-hexaoxaicosanediamide]
- protein levels of hydroxylated HIF-1α (Hdy-HIF-1α) (Hdy-HIF-1α): detectable albeit low increase
- stabilization of Hdy-HIF-1α (Hdy-HIF-1α): comparable with the effect obtained with VH032 alone
- average normalized ratio to DMSO, LRRC42 [1]: 0.60
- cellular efficacy at longer time points (pVHL30 [2]): retained their efficacy
- time of treatment to complete degradation of pVHL30 (pVHL30 [2]): 1 h
- increase in cellular activity compared to parent inhibitor VH032 (pVHL30 [3]): > 1000 fold
- depletion of target protein (pVHL30 / VHL) (pVHL30 [3]; 1 µM): total knockdown
- remaining activity at 1 µM (pVHL30 [3]; 1 µM): 1%
- pVHL30 levels detected (pVHL30 [3]; 1 µM, after 24–36 h treatment): up to 11%
- decrease of pVHL30 level (pVHL30 [3]; 1 µM, after 2 h): > 70%
- decrease of pVHL30 level (pVHL30 [3]; 1 µM, after 8 h): essentially to completion
- DC99 (complete depletion of pVHL30) (pVHL30 [3]; 4 h): 10 nM
- effective degrading concentrations lower than inhibitory concentrations of VH032 (pVHL30 [3]; compared to VH032): > 3 orders of magnitude
